Reference: ChEMBL document CHEMBL1201862, “PubChem BioAssay data set” (2004)
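48-hour exposure; five concentrations; linearly interpolated endpoints. GI50 = concentration required for 50% inhibition of growth.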 Activity calls are given as the source filed them. Rule as the data show it: active = GI50 up to about 1.1 µM and inactive = higher.

Key:
Assay in all cases: DTP human tumour cell line panel, 48 h
[1] = test system: SK-MEL-5
[2] = test system: PC-3
[3] = test system: OVCAR-3
[4] = test system: 786-0
[5] = test system: NCI/ADR-RES
[6] = test system: SK-OV-3
[7] = test system: OVCAR-5
[8] = test system: DU-145
[9] = test system: K562
[10] = test system: SR
[11] = test system: OVCAR-8
[12] = test system: SF-268
[13] = test system: NCI-H23
[14] = test system: LOX IMVI
[15] = test system: MDA-MB-231
[16] = test system: ACHN
[17] = test system: KM12
[18] = test system: A498
[19] = test system: OVCAR-4
[20] = test system: UO-31

Measured: GI50

O=C(O)COc1cc(-c2ccccc2F)nc2cc3c(cc12)OCO3
inactive: [1] > 100 µM | [2] > 100 µM | [3] > 100 µM | [4] > 100 µM | [5] > 100 µM | [6] > 100 µM | [7] > 100 µM | [8] > 100 µM | [9] > 100 µM | [10] > 100 µM | [11] > 100 µM | [12] > 100 µM | [13] > 100 µM | [14] > 100 µM | [15] > 100 µM | [16] > 100 µM | [17] > 100 µM

O=C(c1ccccc1Cl)n1oc2ccccc2c1=O
inactive: [1] 82.4 µM | [2] > 100 µM | [3] > 100 µM | [18] > 100 µM | [4] 77.1 µM | [5] > 100 µM | [6] > 100 µM | [19] > 100 µM | [7] > 100 µM | [8] > 100 µM | [9] 7.62 µM | [11] > 100 µM | [12] > 100 µM | [14] 72.3 µM | [20] > 100 µM | [15] > 100 µM | [16] > 100 µM | [17] 84.1 µM

CCCCc1ccc(Nc2nc(OC)c3ncn(C4CC(O)C(CO)O4)c3n2)cc1 (stereo not drawn)
inactive: [1] 18.7 µM | [2] 18.1 µM | [3] 22.4 µM | [18] 19.7 µM | [4] 16.4 µM | [5] 27 µM | [6] 13.2 µM | [19] 18 µM | [7] 35.4 µM | [8] 19.6 µM | [9] 6.15 µM | [11] 16.4 µM | [12] 16.6 µM | [13] 18 µM | [14] 12.1 µM | [20] 19.2 µM | [15] 17.7 µM | [16] 16.4 µM | [17] 16.5 µM

CCSC1=N/C(=C\c2ccco2)C(=O)N1
inactive: [1] > 100 µM | [2] > 100 µM | [3] > 100 µM | [18] > 100 µM | [4] > 100 µM | [5] > 100 µM | [6] > 100 µM | [7] > 100 µM | [8] > 100 µM | [9] > 100 µM | [10] > 100 µM | [11] > 100 µM | [12] > 100 µM | [13] > 100 µM | [14] > 100 µM | [20] > 100 µM | [15] > 100 µM | [16] > 100 µM | [17] > 100 µM

CC(=O)c1nc(C#N)c(N)o1
inactive: [2] > 100 µM | [3] > 100 µM | [18] > 100 µM | [4] > 100 µM | [5] > 100 µM | [6] > 100 µM | [19] > 100 µM | [7] > 100 µM | [8] > 100 µM | [9] > 100 µM | [11] > 100 µM | [12] > 100 µM | [13] > 100 µM | [14] > 100 µM | [20] > 100 µM | [15] > 100 µM | [16] > 100 µM | [17] > 100 µM

COCN1C(=O)[C@@H]2CCCN2C(=O)c2cc(N)ccc21
inactive: [2] > 100 µM | [18] > 100 µM | [4] > 100 µM | [5] > 100 µM | [6] > 100 µM | [19] > 100 µM | [7] > 100 µM | [8] > 100 µM | [11] > 100 µM | [12] > 100 µM | [13] > 100 µM | [14] > 100 µM | [20] > 100 µM | [15] > 100 µM | [16] > 100 µM | [17] > 100 µM

N#CCCC1(CCC#N)CCc2ccccc2C1=O
inactive: [1] > 100 µM | [2] > 100 µM | [3] > 100 µM | [4] > 100 µM | [5] > 100 µM | [6] > 100 µM | [19] > 100 µM | [7] > 100 µM | [8] > 100 µM | [9] > 100 µM | [10] > 100 µM | [11] > 100 µM | [12] > 100 µM | [13] > 100 µM | [14] > 100 µM | [20] > 100 µM | [15] > 100 µM | [16] > 100 µM | [17] > 100 µM

COC(CNC(=O)C(C)NC(=O)CCc1ccccc1)OC (stereo not drawn)
inactive: [1] > 100 µM | [2] > 100 µM | [4] > 100 µM | [5] > 100 µM | [6] > 100 µM | [19] > 100 µM | [7] > 100 µM | [8] > 100 µM | [9] > 100 µM | [10] > 100 µM | [11] > 100 µM | [12] > 100 µM | [13] > 100 µM | [20] > 100 µM | [15] > 100 µM | [16] > 100 µM | [17] > 100 µM

N=C(N)NS(=O)(=O)c1ccc(NC(=O)c2ccc3nc4ccccc4c(O)c3c2)cc1
inactive: [1] > 100 µM | [2] > 100 µM | [3] > 100 µM | [4] > 100 µM | [5] > 100 µM | [6] > 100 µM | [19] > 100 µM | [7] > 100 µM | [8] > 100 µM | [9] > 100 µM | [10] > 100 µM | [11] > 100 µM | [12] > 100 µM | [13] > 100 µM | [14] 49.7 µM | [20] > 100 µM | [15] > 100 µM | [16] > 100 µM | [17] > 100 µM

O=c1[nH]c(=O)n(C2OC(CO)C(O)C2O)c2nc(-c3ccc(-c4ccccc4)cc3)cnc12 (stereo not drawn)
inactive: [1] 40.6 µM | [2] > 100 µM | [18] > 100 µM | [4] > 100 µM | [5] > 100 µM | [6] > 100 µM | [19] > 100 µM | [7] > 100 µM | [8] > 100 µM | [9] > 100 µM | [11] > 100 µM | [12] > 100 µM | [13] > 100 µM | [14] > 100 µM | [20] > 100 µM | [15] > 100 µM | [16] > 100 µM | [17] > 100 µM

COc1cc(O)c2c(=O)c(OC)c(-c3ccc4c(c3)OCO4)oc2c1
inactive: [1] > 35.6 µM | [2] > 100 µM | [18] 38.5 µM | [4] 15.3 µM | [5] > 100 µM | [6] 13.9 µM | [7] > 100 µM | [8] > 100 µM | [10] > 100 µM | [11] 6.15 µM | [12] 4.31 µM | [13] > 31.5 µM | [14] > 23.2 µM | [20] > 100 µM | [15] > 37.3 µM | [16] 17.5 µM | [17] > 100 µM

O=c1c(/C=C/c2c(O)ccc3ccccc23)nnc2sc(-c3cccc([N+](=O)[O-])c3)nn12
inactive: [2] 10.1 µM | [3] 2.73 µM | [4] 7.13 µM | [5] 12.3 µM | [6] 30 µM | [19] 6.98 µM | [7] 33 µM | [8] 8.38 µM | [9] 25.6 µM | [10] 4.38 µM | [11] 13.7 µM | [12] 8.93 µM | [13] 19.1 µM | [14] 6.56 µM | [20] 9.93 µM | [15] 7.33 µM | [16] 5.12 µM | [17] 22.1 µM

CC(=O)OCC1OC(n2cnc(C(N)=S)c2N)C(OC(C)=O)C1OC(C)=O (stereo not drawn)
inactive: [1] > 100 µM | [2] > 100 µM | [3] > 100 µM | [4] > 100 µM | [5] > 100 µM | [6] > 100 µM | [19] > 100 µM | [7] > 100 µM | [8] > 100 µM | [10] > 100 µM | [11] > 100 µM | [12] > 100 µM | [13] > 100 µM | [14] > 100 µM | [20] > 100 µM | [15] > 100 µM | [16] > 100 µM | [17] > 100 µM

CCCCSC1=N/C(=C\c2ccccc2O)C(=O)N1
inactive: [2] 23.4 µM | [3] > 100 µM | [18] 28.2 µM | [4] 69.7 µM | [5] 66.7 µM | [6] > 100 µM | [19] 66.1 µM | [7] > 100 µM | [8] > 100 µM | [9] 78.3 µM | [11] > 100 µM | [12] > 100 µM | [13] 42.7 µM | [14] 84.3 µM | [20] 21.6 µM | [15] 34 µM | [16] 40.3 µM | [17] 49.8 µM

CC(=O)CCC(=O)C(=[N+]=[N-])S(=O)(=O)c1ccccc1
inactive: [1] > 100 µM | [2] > 100 µM | [3] > 100 µM | [4] > 100 µM | [5] > 100 µM | [7] > 100 µM | [8] > 100 µM | [9] > 100 µM | [10] > 100 µM | [11] > 100 µM | [12] > 100 µM | [13] > 100 µM | [14] > 100 µM | [20] > 100 µM | [15] > 100 µM | [16] > 100 µM | [17] > 100 µM
